Measurements from the kinase profiling compilation of Christmann-Franck et al. (2016).

How the values were obtained:
Assay in all cases: radiometric filter-binding kinase assay
CSNK2A1 (human) = CSNK2A1 (human) (UniProt P68400); details: compound 100.0 µM; ATP 5 µM
SRC (human) = SRC (human) (UniProt P12931); details: compound 100.0 µM; ATP 50 µM
TBK1 (human) = TBK1 (human) (UniProt Q9UHD2); details: compound 100.0 µM; ATP 50 µM
MAPKAPK3 (human) = MAPKAPK3 (human) (UniProt Q16644); details: compound 100.0 µM; ATP 20 µM
MAPKAPK5 (human) = MAPKAPK5 (human) (UniProt Q8IW41); details: compound 100.0 µM; ATP 20 µM
MAP3K9 (human) = MAP3K9 (human) (UniProt P80192); details: compound 100.0 µM; ATP 20 µM
EPHB1 (human) = EPHB1 (human) (UniProt P54762); details: compound 100.0 µM; ATP 20 µM
MAPK13 (human) = MAPK13 (human) (UniProt O15264); details: compound 100.0 µM; ATP 5 µM
BRSK2 (human) = BRSK2 (human) (UniProt Q8IWQ3); details: compound 100.0 µM; ATP 50 µM
PIM2 (human) = PIM2 (human) (UniProt Q9P1W9); details: compound 100.0 µM; ATP 5 µM
GCK (human) = GCK (human) (UniProt Q12851); details: compound 100.0 µM; ATP 20 µM
PAK4 (human) = PAK4 (human) (UniProt O96013); details: compound 100.0 µM; ATP 5 µM
PAK7 (human) = PAK7 (human) (UniProt Q9P286); details: compound 100.0 µM; ATP 20 µM
MAPK8 (human) = MAPK8 (human) (UniProt P45983); details: compound 100.0 µM; ATP 20 µM
PRKCG (human) = PRKCG (human) (UniProt P05129); details: compound 100.0 µM; ATP 20 µM
DAPK1 (human) = DAPK1 (human) (UniProt P53355); details: compound 100.0 µM; ATP 5 µM
EPHA4 (human) = EPHA4 (human) (UniProt P54764); details: compound 100.0 µM; ATP 50 µM
MYLK (human) = MYLK (human) (UniProt Q15746); details: compound 100.0 µM; ATP 50 µM
BRSK1 (human) = BRSK1 (human) (UniProt Q8TDC3); details: compound 100.0 µM; ATP 20 µM
RPS6KA5 KD1 KD2 (human) = RPS6KA5 KD1 KD2 (human) (UniProt O75582); details: compound 100.0 µM; ATP 20 µM
IKBKE (human) = IKBKE (human) (UniProt Q14164); details: compound 100.0 µM; ATP 50 µM
EPHA2 (human) = EPHA2 (human) (UniProt P29317); details: compound 100.0 µM; ATP 50 µM
PRKCZ (human) = PRKCZ (human) (UniProt Q05513); details: compound 100.0 µM; ATP 5 µM
[1] = system: PAK2 (human), Q13177 [T402E]; details: compound 100.0 µM; ATP 20 µM
CHEK2 (human) = CHEK2 (human) (UniProt O96017); details: compound 100.0 µM; ATP 20 µM
ERBB4 (human) = ERBB4 (human) (UniProt Q15303); details: compound 100.0 µM; ATP 5 µM
RPS6KA3 KD1 KD2 (human) = RPS6KA3 KD1 KD2 (human) (UniProt P51812); details: compound 100.0 µM; ATP 50 µM
TAOK1 (human) = TAOK1 (human) (UniProt Q7L7X3); details: compound 100.0 µM; ATP 20 µM
MAPK14 (human) = MAPK14 (human) (UniProt Q16539); details: compound 100.0 µM; ATP 50 µM
MAPK11 (human) = MAPK11 (human) (UniProt Q15759); details: compound 100.0 µM; ATP 20 µM
FGFR1 (human) = FGFR1 (human) (UniProt P11362); details: compound 100.0 µM; ATP 20 µM
HIPK1 (human) = HIPK1 (human) (UniProt Q86Z02); details: compound 100.0 µM; ATP 20 µM
MAPK9 (human) = MAPK9 (human) (UniProt P45984); details: compound 100.0 µM; ATP 20 µM
NTRK1 (human) = NTRK1 (human) (UniProt P04629); details: compound 100.0 µM; ATP 20 µM
DYRK3 (human) = DYRK3 (human) (UniProt O43781); details: compound 100.0 µM; ATP 5 µM
MAPK1 (human) = MAPK1 (human) (UniProt P28482); details: compound 100.0 µM; ATP 20 µM

Sequence of EPHA4 (human) (P54764 whole entry, looked up): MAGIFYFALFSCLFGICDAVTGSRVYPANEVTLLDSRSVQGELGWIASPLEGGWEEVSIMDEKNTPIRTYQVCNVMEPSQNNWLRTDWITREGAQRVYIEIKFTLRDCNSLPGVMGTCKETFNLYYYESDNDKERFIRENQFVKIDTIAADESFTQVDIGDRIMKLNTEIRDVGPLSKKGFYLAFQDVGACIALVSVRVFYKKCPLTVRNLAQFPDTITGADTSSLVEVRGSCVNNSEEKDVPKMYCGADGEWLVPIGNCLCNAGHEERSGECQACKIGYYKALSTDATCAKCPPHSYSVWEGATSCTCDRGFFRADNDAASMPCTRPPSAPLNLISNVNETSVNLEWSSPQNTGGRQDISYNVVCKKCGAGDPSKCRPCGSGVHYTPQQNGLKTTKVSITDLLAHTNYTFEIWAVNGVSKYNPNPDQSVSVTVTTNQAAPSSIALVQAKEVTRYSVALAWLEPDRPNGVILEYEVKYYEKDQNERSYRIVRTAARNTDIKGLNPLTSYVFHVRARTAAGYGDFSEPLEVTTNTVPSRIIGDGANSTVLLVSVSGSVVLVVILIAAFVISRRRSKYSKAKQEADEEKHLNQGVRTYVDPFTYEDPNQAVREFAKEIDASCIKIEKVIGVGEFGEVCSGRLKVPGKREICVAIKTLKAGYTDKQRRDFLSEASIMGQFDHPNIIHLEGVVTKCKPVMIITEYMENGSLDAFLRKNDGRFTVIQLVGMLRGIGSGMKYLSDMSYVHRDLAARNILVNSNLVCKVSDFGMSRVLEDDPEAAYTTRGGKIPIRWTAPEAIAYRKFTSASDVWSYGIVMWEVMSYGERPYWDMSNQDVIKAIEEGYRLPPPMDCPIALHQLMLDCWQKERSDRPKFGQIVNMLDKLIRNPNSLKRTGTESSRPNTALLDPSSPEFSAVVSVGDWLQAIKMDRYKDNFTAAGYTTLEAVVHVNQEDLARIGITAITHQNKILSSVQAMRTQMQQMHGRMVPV
Sequence of NTRK1 (human) (P04629 whole entry, looked up): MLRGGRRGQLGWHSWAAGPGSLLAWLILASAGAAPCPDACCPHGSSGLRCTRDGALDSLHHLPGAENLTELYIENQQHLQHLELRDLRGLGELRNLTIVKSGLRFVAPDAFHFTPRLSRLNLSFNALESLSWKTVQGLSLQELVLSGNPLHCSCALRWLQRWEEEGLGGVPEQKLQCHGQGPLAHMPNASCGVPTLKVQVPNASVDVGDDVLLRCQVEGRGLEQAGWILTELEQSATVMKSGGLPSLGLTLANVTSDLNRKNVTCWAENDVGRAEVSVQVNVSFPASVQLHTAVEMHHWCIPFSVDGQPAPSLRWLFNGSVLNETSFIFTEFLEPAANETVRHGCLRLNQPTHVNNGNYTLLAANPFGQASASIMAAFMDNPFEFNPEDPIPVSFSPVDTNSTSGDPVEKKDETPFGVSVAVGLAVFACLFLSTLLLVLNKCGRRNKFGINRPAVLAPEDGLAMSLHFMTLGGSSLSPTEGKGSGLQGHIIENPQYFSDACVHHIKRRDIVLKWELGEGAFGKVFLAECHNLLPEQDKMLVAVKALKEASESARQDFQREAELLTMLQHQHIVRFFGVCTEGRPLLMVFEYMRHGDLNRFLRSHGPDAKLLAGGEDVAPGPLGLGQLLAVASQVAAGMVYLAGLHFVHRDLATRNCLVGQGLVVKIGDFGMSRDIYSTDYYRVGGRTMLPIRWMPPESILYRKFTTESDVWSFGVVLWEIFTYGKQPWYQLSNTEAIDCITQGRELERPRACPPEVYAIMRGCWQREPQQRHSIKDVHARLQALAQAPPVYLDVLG
Sequence of TBK1 (human) (Q9UHD2 whole entry, looked up): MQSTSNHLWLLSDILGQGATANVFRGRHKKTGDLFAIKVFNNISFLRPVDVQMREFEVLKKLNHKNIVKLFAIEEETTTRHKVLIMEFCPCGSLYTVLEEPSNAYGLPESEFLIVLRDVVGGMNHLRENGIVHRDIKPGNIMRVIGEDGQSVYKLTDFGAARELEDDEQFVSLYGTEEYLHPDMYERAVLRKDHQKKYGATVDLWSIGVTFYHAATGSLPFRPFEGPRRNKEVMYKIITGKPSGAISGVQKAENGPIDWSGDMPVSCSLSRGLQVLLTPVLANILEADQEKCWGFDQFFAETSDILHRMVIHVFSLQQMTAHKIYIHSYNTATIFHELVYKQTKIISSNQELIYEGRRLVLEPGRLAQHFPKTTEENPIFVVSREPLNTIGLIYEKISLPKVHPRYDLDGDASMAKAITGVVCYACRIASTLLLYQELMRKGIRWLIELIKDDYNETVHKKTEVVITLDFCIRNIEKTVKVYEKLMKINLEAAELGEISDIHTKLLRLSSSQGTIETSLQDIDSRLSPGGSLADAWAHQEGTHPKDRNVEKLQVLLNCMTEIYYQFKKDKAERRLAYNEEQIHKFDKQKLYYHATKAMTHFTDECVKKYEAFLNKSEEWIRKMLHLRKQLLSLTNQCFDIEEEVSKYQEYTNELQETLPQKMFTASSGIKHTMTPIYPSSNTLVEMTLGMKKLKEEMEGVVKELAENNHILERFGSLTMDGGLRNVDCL
Sequence of MAPKAPK5 (human) (Q8IW41 whole entry, looked up): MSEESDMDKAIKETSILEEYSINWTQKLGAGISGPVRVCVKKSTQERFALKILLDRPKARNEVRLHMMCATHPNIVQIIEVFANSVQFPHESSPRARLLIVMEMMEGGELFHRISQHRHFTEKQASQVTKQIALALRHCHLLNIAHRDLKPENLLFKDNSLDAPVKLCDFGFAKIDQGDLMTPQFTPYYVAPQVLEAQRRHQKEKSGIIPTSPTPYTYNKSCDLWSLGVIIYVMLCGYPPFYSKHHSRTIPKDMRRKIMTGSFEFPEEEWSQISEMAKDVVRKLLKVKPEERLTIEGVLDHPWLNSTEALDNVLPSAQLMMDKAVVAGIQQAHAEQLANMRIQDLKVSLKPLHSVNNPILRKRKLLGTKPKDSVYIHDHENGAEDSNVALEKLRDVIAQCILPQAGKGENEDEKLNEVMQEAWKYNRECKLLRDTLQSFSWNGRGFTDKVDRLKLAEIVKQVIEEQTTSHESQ
Sequence of EPHB1 (human) (P54762 whole entry, looked up): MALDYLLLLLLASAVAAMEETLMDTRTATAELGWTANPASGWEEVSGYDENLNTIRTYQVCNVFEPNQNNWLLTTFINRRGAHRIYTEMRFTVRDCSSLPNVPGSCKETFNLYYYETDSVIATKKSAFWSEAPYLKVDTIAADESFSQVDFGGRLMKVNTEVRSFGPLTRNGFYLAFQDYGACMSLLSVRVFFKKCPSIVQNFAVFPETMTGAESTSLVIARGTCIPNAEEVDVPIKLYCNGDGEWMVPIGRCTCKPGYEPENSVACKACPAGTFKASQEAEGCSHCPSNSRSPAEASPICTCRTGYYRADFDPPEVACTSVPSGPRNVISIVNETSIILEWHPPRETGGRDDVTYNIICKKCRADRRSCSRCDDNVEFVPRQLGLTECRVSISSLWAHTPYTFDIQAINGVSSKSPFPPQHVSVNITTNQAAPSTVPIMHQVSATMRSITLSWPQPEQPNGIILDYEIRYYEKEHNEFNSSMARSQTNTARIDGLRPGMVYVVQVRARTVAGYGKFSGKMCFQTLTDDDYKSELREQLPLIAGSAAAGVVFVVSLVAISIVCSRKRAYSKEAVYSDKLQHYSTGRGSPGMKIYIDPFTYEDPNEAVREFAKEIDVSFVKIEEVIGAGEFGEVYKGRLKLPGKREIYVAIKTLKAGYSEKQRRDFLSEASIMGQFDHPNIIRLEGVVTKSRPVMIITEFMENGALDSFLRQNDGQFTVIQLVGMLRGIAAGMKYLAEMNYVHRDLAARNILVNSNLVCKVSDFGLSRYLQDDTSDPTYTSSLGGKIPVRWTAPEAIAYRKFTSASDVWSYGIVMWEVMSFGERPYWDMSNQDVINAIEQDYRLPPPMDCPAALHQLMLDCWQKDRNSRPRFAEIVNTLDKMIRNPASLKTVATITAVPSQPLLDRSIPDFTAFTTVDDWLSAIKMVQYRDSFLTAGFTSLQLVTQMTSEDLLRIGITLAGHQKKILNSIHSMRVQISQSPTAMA
Sequence of SRC (human) (P12931 whole entry, looked up): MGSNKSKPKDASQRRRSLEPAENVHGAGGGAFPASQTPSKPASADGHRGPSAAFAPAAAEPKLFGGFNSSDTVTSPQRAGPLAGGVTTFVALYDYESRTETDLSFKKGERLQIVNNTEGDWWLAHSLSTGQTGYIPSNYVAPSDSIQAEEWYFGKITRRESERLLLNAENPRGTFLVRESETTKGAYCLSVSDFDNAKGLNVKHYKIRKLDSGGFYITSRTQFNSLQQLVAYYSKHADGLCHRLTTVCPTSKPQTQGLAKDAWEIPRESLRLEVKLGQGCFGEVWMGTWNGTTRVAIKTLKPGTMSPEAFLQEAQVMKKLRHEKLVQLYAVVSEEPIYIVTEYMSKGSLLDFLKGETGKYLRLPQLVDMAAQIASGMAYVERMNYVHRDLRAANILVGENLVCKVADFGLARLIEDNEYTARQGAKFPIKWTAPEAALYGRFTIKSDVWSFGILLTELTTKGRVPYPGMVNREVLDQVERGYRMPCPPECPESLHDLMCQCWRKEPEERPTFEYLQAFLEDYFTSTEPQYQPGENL
Sequence of MAPK13 (human) (O15264 whole entry, looked up): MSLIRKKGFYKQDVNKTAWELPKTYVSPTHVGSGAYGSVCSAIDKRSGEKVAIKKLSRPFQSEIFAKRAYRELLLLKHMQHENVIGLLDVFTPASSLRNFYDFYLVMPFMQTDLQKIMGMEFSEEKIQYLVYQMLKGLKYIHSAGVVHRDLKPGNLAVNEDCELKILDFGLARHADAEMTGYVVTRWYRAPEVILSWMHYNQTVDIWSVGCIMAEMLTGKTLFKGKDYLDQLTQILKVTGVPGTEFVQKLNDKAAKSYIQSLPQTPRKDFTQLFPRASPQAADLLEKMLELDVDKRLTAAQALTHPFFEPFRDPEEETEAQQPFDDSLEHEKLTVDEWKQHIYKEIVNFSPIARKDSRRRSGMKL

Row | SMILES | inhibition (CSNK2A1 (human)) [%] | inhibition (SRC (human)) [%] | inhibition (TBK1 (human)) [%] | inhibition (MAPKAPK3 (human)) [%] | inhibition (MAPKAPK5 (human)) [%] | inhibition (MAP3K9 (human)) [%] | inhibition (EPHB1 (human)) [%] | inhibition (MAPK13 (human)) [%] | inhibition (BRSK2 (human)) [%] | inhibition (PIM2 (human)) [%] | inhibition (GCK (human)) [%] | inhibition (PAK4 (human)) [%] | inhibition (PAK7 (human)) [%] | inhibition (MAPK8 (human)) [%] | inhibition (PRKCG (human)) [%] | inhibition (DAPK1 (human)) [%] | inhibition (EPHA4 (human)) [%] | inhibition (MYLK (human)) [%] | inhibition (BRSK1 (human)) [%] | inhibition (RPS6KA5 KD1 KD2 (human)) [%] | other results
1 | CC1CN(c2nc3ccccn3c(=O)c2N)CC(C)O1 (stereo not drawn) | 97 | 73 | 0 | 70 | 75 | 0 | 0 | 0 | 32 | 19 | 0 | 0 | 0 | 14 | 0 | 0 | 16 | 0 | 12 | 0 | inhibition (IKBKE (human)): 0%; inhibition (EPHA2 (human)): 0%; inhibition (PRKCZ (human)): 0%; inhibition [1]: 3%; inhibition (CHEK2 (human)): 0%; inhibition (ERBB4 (human)): 28%; inhibition (RPS6KA3 KD1 KD2 (human)): 84%; inhibition (TAOK1 (human)): 0%; inhibition (MAPK14 (human)): 0%; inhibition (MAPK11 (human)): 0%; inhibition (FGFR1 (human)): 34%; inhibition (HIPK1 (human)): 0%; inhibition (MAPK9 (human)): 6%; inhibition (NTRK1 (human)): 37%; inhibition (DYRK3 (human)): 49%; inhibition (MAPK1 (human)): 12%
2 | O=C(Nc1cnc2[nH]cnn2c1=O)c1ccccc1 | 0 | 0 | 24 | 0 | 0 | 0 | 1 | 0 | 22 | 0 | 0 | 3 | 0 | 0 | 2 | 0 | 11 | 0 | 2 | 52 | inhibition (IKBKE (human)): 0%; inhibition (EPHA2 (human)): 0%; inhibition (PRKCZ (human)): 0%; inhibition [1]: 0%; inhibition (CHEK2 (human)): 0%; inhibition (ERBB4 (human)): 21%; inhibition (RPS6KA3 KD1 KD2 (human)): 11%; inhibition (TAOK1 (human)): 0%; inhibition (MAPK14 (human)): 0%; inhibition (MAPK11 (human)): 2%; inhibition (FGFR1 (human)): 0%; inhibition (HIPK1 (human)): 0%; inhibition (MAPK9 (human)): 3%; inhibition (NTRK1 (human)): 0%; inhibition (DYRK3 (human)): 1%; inhibition (MAPK1 (human)): 4%
3 | O=C(c1cccc(-c2cc3c(=O)[nH]cnc3s2)c1)N1CCOCC1 | 41 | 33 | 17 | 61 | 0 | 0 | 0 | 0 | 30 | 13 | 7 | 34 | 0 | 8 | 16 | 0 | 0 | 8 | 38 | 24 | inhibition (IKBKE (human)): 36%; inhibition (EPHA2 (human)): 37%; inhibition (PRKCZ (human)): 0%; inhibition [1]: 0%; inhibition (CHEK2 (human)): 34%; inhibition (ERBB4 (human)): 33%; inhibition (RPS6KA3 KD1 KD2 (human)): 39%; inhibition (TAOK1 (human)): 3%; inhibition (MAPK14 (human)): 0%; inhibition (MAPK11 (human)): 15%; inhibition (FGFR1 (human)): 57%; inhibition (HIPK1 (human)): 10%; inhibition (MAPK9 (human)): 0%; inhibition (NTRK1 (human)): 41%; inhibition (DYRK3 (human)): 47%; inhibition (MAPK1 (human)): 1%
